BindingDB's records for doi:10.1016/0014-5793(93)80368-5 (University of Heidelberg Zmbh, 1993)

What follows are compounds tested against 5-hydroxytryptamine receptor 5B (Rattus norvegicus, UniProt P35365).
Chain of 5-hydroxytryptamine receptor 5B (P35365 whole entry): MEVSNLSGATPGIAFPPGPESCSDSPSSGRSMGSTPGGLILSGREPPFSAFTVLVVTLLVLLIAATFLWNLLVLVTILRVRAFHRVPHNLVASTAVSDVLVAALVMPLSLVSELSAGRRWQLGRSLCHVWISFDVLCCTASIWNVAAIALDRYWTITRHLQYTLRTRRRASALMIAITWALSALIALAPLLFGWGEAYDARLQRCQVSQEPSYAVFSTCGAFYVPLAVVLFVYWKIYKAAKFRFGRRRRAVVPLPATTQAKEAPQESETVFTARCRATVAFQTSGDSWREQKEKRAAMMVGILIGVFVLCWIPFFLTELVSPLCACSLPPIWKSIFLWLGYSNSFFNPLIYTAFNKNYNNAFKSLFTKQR

Structure (SMILES)	Ki [µM]
CCCN(CCC)C1CCc2cccc(O)c2C1 (stereo not given)	0.046
CC[C@@H](CO)NC(=O)[C@@H]1C=C2c3cccc4c3c(cn4C)C[C@H]2N(C)C1	0.0407
NCCc1c[nH]c2ccc(OCC(=O)NCC(=O)N[C@@H](Cc3ccc(O)cc3)C(N)=O)cc12	0.582
O=C(c1ccc(F)cc1)C1CCN(CCn2c(=O)[nH]c3ccccc3c2=O)CC1 [3-(2-{4-[(4-fluorophenyl)carbonyl]piperidin-1-yl}ethyl)-1,2,3,4-tetrahydroquinazoline-2,4-dione]	1
CN1CCC(=C2c3ccccc3C=Cc3ccccc32)CC1 [5-(1-methylpiperidylidene-4)-5H-dibenzo(a,d)cyclopheptene]	0.117
CN1CC(C(=O)N[C@]2(C)O[C@@]3(O)C4CCCN4C(=O)[C@H](Cc4ccccc4)N3C2=O)CC2c3cccc4[nH]cc(c34)CC21 (stereo partly drawn) [7-Methyl-4,6,6a,7,8,9,10,10a-octahydro-indolo[4,3-fg]quinoline-9-carboxylic acid ((2R,5S,10bS)-5-benzyl-10b-hydroxy-2-methyl-3,6-dioxo-octahydro-oxazolo[3,2-a]pyrrolo[2,1-c]pyrazin-2-yl)-amide]	0.031
O=C(CCCN1CCC2(CC1)C(=O)NCN2c1ccccc1)c1ccc(F)cc1 [8-[4-(4-fluorophenyl)-4-oxidanylidene-butyl]-1-phenyl-1,3,8-triazaspiro[4.5]decan-4-one]	1
CCN(CC)C(=O)[C@@H]1C=C2c3cccc4[nH]cc(c34)C[C@H]2N(C)C1 [(4R,7R)-N,N-diethyl-6-methyl-6,11-diazatetracyclo[7.6.1.0^{2,7}.0^{12,16}]hexadeca-1(16),2,9,12,14-pentaene-4-carboxamide]	0.0032
CC(C)NCC(O)COc1cccc2[nH]ccc12 (stereo not given) [LB-46]	1
CNS(=O)(=O)Cc1ccc2[nH]cc(CCN(C)C)c2c1 [Sumax]	0.807
